From patent publication US10208033B2, “β-carboline, dihydro-β-carboline and tetrahydro-β-carboline alkaloid derivatives and preparation methods same and use in aspects of preventing and treating plant viruses, fungicides and insecticides” (NANKAI UNIVERSITY, priority 2013, dated 2019)

Assays:
[1] = system: tobacco mosaic virus (TMV); assay: Anti-TMV in vitro effect (half-leaf soaking); format: cell-based, tobacco mosaic virus (host Nicotiana tabacum L.cv.Xanthi NN)
[2] = system: tobacco mosaic virus (TMV); assay: Anti-TMV in vivo inactivation; parameters: species or system tobacco mosaic virus (host Nicotiana tabacum L.cv.Xanthi NN)
[3] = system: tobacco mosaic virus (TMV); assay: Anti-TMV in vivo therapeutic effect; parameters: species or system tobacco mosaic virus (host Nicotiana tabacum L.cv.Xanthi NN)
[4] = system: tobacco mosaic virus (TMV); assay: Anti-TMV in vivo protective effect; parameters: species or system tobacco mosaic virus (host Nicotiana tabacum L.cv.Xanthi NN)
cucumber fusarium wilt = assay: Fungicidal (bactericidal) activity in vitro, PDA colony diameter; format: cell-based; conditions: 50 mg/kg
Cercospora arachidicola = assay: as above; format: cell-based; conditions: 50 mg/kg
Macrophoma kawatsukai = assay: as above; format: cell-based; conditions: 50 mg/kg
Alternaria solani = assay: as above; format: cell-based; conditions: 50 mg/kg
Fusarium graminearumt = assay: microbe, parasite or virus in culture; format: cell-based
potato late blight = assay: microbe, parasite or virus in culture; format: cell-based
Sclerotinia scleotiorum = assay: Fungicidal (bactericidal) activity in vitro, PDA colony diameter; format: cell-based; conditions: 50 mg/kg
Botrytis cinerea = assay: as above; format: cell-based; conditions: 50 mg/kg
Rhizoctonia solani = assay: as above; format: cell-based; conditions: 50 mg/kg
Phytophthora capsici = assay: as above; format: cell-based; conditions: 50 mg/kg
Fusarium fujikuroi = assay: as above; format: cell-based
Rhizoctonia cereali = assay: as above; format: cell-based; conditions: 50 mg/kg
Bipolaria maydis = assay: organism not typed; format: cell-based
[5] = system: Colletotrichum orbiculare; assay: Fungicidal (bactericidal) activity in vitro, PDA colony diameter; format: cell-based; conditions: 50 mg/kg
armyworms = format: in vivo; conditions: concentration 600 mg/kg
cotton bollworms = assay: whole plant or invertebrate
Protocol: Experimental method of cotton bollworms: feed and drug mixing method: measure 3 mL of prepared solution and add it to about 27 g of newly prepared feed, thereby obtaining needed concentration through dilution by 10 times.

mosquito larvae = assay: whole plant or invertebrate; conditions: 24 h
Summary of the method: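 Compound dissolved in acetone (or other solvent) to a 1000 ppm stock and diluted in water to 5 ppm. Ten Culex pipiens pallens larvae at the start of the fourth instar, laboratory-reared, added per beaker; solvent-only aqueous control.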

[6] = system: tobacco mosaic virus (TMV); assay: Anti-TMV activity, overall statements on Table 1; format: in vivo, tobacco mosaic virus (host Nicotiana tabacum L.cv.Xanthi NN); conditions: 100 μg/mL versus ningnanmycin at 100 μg/mL
corn borers [7] = assay: whole plant or invertebrate; conditions: read-out: Corn borer Mortality (%)
[8] = system: armyworms, cotton bollworms and corn borers; assay: Insecticidal activity, overall statements on Table 3; format: in vivo; conditions: Table 3, 600 mg/kg
corn borers [9] = conditions: concentration 600 mg/kg

CC1=NCCc2c1[nH]c1ccccc21 [Harmalan]
inhibition at 100 µg/mL ([1]; Tobacco mosaic virus, treatment dose 100 μg/mL, read-out: Relative inhibition rate (%) In vitro activity): 30% | inhibition at 500 µg/mL ([1]; Tobacco mosaic virus, treatment dose 500 μg/mL, read-out: Relative inhibition rate (%) In vitro activity): 58.6% | inhibition at 100 µg/mL ([2]; Tobacco mosaic virus, treatment dose 100 μg/mL, read-out: Relative inhibition rate (%) In vivo inactivation): 32.7% | inhibition at 500 µg/mL ([2]; Tobacco mosaic virus, treatment dose 500 μg/mL, read-out: Relative inhibition rate (%) In vivo inactivation): 62.3% | inhibition at 100 µg/mL ([3]; Tobacco mosaic virus, treatment dose 100 μg/mL, read-out: Relative inhibition rate (%) In vivo therapy): 34.8% | inhibition at 500 µg/mL ([3]; Tobacco mosaic virus, treatment dose 500 μg/mL, read-out: Relative inhibition rate (%) In vivo therapy): 55.1% | inhibition at 100 µg/mL ([4]; Tobacco mosaic virus, treatment dose 100 μg/mL, read-out: Relative inhibition rate (%) In vivo protection): 35.6% | inhibition at 500 µg/mL ([4]; Tobacco mosaic virus, treatment dose 500 μg/mL, read-out: Relative inhibition rate (%) In vivo protection): 60.3% | inhibition of growth at 50 mg/kg (cucumber fusarium wilt; Fusarium, 96 h): 23.1% | inhibition of growth at 50 mg/kg (Cercospora arachidicola; Mycosphaerella arachidis, 96 h): 76.9% | inhibition at 50 mg/kg (Macrophoma kawatsukai): 2.4% | inhibition of growth at 50 mg/kg (Alternaria solani; Alternaria solani, 96 h): 26.3% | inhibition of growth at 50 mg/kg (Fusarium graminearumt; Fusarium, 96 h, read-out: Bactericidal activity (%) Fusarium graminearumt): 21.4% | inhibition of growth at 50 mg/kg (potato late blight; Phytophthora infestans, 96 h, read-out: Bactericidal activity (%) potato late blight): 31.8% | inhibition of growth at 50 mg/kg (Sclerotinia scleotiorum; Sclerotinia, 96 h): 19.6% | inhibition of growth at 50 mg/kg (Botrytis cinerea; Botrytis cinerea, 96 h): 15.2% | inhibition of growth at 50 mg/kg (Rhizoctonia solani; Rhizoctonia solani, 96 h): 19.7% | inhibition of growth at 50 mg/kg (Phytophthora capsici; Phytophthora capsici, 96 h): 0% | inhibition of growth at 50 mg/kg (Fusarium fujikuroi; Fusarium fujikuroi, 96 h, 50 mg/kg): 28.6% | inhibition of growth at 50 mg/kg (Rhizoctonia cereali; Rhizoctonia, 96 h): 55.3% | inhibition at 50 mg/kg (Bipolaria maydis; read-out: Bactericidal activity (%) Bipolaria maydis): 27.3% | inhibition of growth at 50 mg/kg ([5]; Colletotrichum orbiculare, 96 h): 25% | Armyworm Mortality (%) (armyworms): 20% | mortality at 600 mg/kg (cotton bollworms; Helicoverpa armigera, in Gossypium hirsutum, read-out: Cotton bollworm Mortality (%)): 10% | mortality at 10 mg/kg (mosquito larvae; Culex pipiens, read-out: Mosquito larvae Mortality (%)): 35% | anti-TMV activity compared with ningnanmycin [6]: equivalent to the activity of commercial variety ningnanmycin | mortality at 600 mg/kg (corn borers [7]): 15%

COc1ccc(C=NNC(=O)[C@@H]2Cc3c([nH]c4ccccc34)[C@H](C)N2)cc1OC [Ic-11, (1S, 3S)—N′-(3,4-dimethoxybenzylidene)-1-methyl-2,3,4,9-tetrahydropyridino [3,4-b] indol-3-formylhydrazine]
Relative inhibition rate (%) In vitro activity ([1]; treatment dose 100 μg/mL): 7.8% | Relative inhibition rate (%) In vitro activity ([1]; treatment dose 500 μg/mL): 37.2% | Relative inhibition rate (%) In vivo inactivation ([2]; treatment dose 100 μg/mL): 20.3% | Relative inhibition rate (%) In vivo inactivation ([2]; treatment dose 500 μg/mL): 47.1% | Relative inhibition rate (%) In vivo therapy ([3]; treatment dose 100 μg/mL): 16.2% | Relative inhibition rate (%) In vivo therapy ([3]; treatment dose 500 μg/mL): 40.5% | Relative inhibition rate (%) In vivo protection ([4]; treatment dose 100 μg/mL): 11% | Relative inhibition rate (%) In vivo protection ([4]; treatment dose 500 μg/mL): 42.3% | Bactericidal activity (%) Cucumber fusarium wilt (cucumber fusarium wilt): 22.7% | Bactericidal activity (%) Cercospora arachidicola (Cercospora arachidicola): 45.5% | Bactericidal activity (%) Macrophoma kawatsukai (Macrophoma kawatsukai): 66.7% | Bactericidal activity (%) Alternaria solani (Alternaria solani): 52.4% | Bactericidal activity (%) Fusarium graminearumt (Fusarium graminearumt; 50 mg/kg): 30.8% | Bactericidal activity (%) potato late blight (potato late blight): 30.4% | Bactericidal activity (%) Sclerotinia scleotiorum (Sclerotinia scleotiorum): 21.2% | Bactericidal activity (%) Botrytis cinerea (Botrytis cinerea): 66.7% | Bactericidal activity (%) Rhizoctonia solani (Rhizoctonia solani): 44.4% | Bactericidal activity (%) Phytophthora capsici (Phytophthora capsici): 84.8% | Bactericidal activity (%) Fusarium fujikuroi (Fusarium fujikuroi): 47.1% | Bactericidal activity (%) Rhizoctonia cereali (Rhizoctonia cereali): 89.2% | Bactericidal activity (%) Bipolaria maydis (Bipolaria maydis; 50 mg/kg): 52.0% | Bactericidal activity (%) Colletotrichum orbiculare [5]: 72.0% | Armyworm Mortality (%) (armyworms): 65% | Cotton bollworm Mortality (%) (cotton bollworms; concentration 600 mg/kg): 40% | Mosquito larvae Mortality (%) (mosquito larvae; concentration 5 mg/kg): 40% | Mosquito larvae Mortality (%) (mosquito larvae; concentration 10 mg/kg): 100% | activity against armyworms, cotton bollworms and corn borers (in words) [8]: broad-spectrum activity | Corn borer Mortality (%) (corn borers [9]): 55%
